Test results reported in US20260184713A1, “KINASE INHIBITORS” (The United States of America, as represented by the …, priority 2022, published 2026).
Like-named read-outs stand apart in the source and are kept apart here.

How the values were obtained:
Experiment in all cases: HOTSPOT radiometric kinase assay
DYRK1A = biological target: T1, DYRK1A (Homo sapiens, UniProt Q13627); format: biochemical
T1 construct: purchased Reaction Biology Corp

RSK1 = biological target: T2, RSK1 (Homo sapiens, UniProt Q15418); format: biochemical; conditions: 10 μM ATP
T2 construct: purchased Reaction Biology Corp
T2 sequence (Q15418 whole entry): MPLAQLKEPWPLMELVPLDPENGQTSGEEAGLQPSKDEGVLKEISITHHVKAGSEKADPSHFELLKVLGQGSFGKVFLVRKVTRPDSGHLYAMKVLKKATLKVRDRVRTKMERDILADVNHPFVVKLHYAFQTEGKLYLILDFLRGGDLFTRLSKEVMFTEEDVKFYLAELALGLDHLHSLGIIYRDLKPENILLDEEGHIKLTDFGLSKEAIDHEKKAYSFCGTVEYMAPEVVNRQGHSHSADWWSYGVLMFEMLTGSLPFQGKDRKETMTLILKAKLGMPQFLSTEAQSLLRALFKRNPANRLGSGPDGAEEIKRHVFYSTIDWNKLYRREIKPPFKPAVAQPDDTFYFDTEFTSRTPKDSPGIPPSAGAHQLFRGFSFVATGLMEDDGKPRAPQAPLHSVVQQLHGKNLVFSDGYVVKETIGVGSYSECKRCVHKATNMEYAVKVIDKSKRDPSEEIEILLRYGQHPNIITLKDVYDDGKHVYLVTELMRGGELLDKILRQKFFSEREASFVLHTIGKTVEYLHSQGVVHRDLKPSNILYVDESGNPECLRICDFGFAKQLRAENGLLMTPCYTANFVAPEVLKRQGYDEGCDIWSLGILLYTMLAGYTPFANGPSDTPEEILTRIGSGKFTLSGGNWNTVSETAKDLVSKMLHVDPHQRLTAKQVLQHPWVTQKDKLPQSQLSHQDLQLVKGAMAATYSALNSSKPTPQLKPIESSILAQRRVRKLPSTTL

CK1α1 = CK1α1 (Homo sapiens, UniProt P48729)
Sequence of CK1α1 (P48729 whole entry): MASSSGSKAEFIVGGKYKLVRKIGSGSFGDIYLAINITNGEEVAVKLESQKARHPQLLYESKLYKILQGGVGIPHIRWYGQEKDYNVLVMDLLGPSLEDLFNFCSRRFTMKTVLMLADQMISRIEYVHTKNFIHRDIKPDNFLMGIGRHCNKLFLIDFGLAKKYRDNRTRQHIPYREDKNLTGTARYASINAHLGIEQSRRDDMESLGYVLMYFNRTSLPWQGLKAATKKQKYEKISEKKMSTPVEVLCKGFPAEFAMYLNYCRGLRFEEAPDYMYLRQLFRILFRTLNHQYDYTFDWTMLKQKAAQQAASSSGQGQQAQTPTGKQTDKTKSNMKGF

MST3 = biological target: T3, MST3 (Homo sapiens, UniProt Q9Y6E0); format: biochemical; conditions: 10 μM ATP
T3 construct: purchased Reaction Biology Corp
T3 sequence (Q9Y6E0 whole entry): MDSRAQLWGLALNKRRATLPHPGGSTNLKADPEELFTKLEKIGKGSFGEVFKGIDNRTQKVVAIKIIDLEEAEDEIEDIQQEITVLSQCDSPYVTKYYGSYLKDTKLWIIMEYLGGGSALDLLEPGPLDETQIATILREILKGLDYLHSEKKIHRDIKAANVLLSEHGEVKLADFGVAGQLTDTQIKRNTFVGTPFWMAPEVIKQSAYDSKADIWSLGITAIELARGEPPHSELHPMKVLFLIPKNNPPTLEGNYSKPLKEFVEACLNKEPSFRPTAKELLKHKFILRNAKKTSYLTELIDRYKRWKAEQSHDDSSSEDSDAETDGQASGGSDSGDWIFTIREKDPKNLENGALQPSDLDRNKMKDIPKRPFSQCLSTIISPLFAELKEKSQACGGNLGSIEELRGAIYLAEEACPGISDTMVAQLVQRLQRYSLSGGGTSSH

LATS1 = biological target: T4, LATS1 (Homo sapiens, UniProt O95835); format: biochemical; conditions: 10 μM ATP
T4 construct: purchased Reaction Biology Corp
T4 sequence (O95835 1-1130): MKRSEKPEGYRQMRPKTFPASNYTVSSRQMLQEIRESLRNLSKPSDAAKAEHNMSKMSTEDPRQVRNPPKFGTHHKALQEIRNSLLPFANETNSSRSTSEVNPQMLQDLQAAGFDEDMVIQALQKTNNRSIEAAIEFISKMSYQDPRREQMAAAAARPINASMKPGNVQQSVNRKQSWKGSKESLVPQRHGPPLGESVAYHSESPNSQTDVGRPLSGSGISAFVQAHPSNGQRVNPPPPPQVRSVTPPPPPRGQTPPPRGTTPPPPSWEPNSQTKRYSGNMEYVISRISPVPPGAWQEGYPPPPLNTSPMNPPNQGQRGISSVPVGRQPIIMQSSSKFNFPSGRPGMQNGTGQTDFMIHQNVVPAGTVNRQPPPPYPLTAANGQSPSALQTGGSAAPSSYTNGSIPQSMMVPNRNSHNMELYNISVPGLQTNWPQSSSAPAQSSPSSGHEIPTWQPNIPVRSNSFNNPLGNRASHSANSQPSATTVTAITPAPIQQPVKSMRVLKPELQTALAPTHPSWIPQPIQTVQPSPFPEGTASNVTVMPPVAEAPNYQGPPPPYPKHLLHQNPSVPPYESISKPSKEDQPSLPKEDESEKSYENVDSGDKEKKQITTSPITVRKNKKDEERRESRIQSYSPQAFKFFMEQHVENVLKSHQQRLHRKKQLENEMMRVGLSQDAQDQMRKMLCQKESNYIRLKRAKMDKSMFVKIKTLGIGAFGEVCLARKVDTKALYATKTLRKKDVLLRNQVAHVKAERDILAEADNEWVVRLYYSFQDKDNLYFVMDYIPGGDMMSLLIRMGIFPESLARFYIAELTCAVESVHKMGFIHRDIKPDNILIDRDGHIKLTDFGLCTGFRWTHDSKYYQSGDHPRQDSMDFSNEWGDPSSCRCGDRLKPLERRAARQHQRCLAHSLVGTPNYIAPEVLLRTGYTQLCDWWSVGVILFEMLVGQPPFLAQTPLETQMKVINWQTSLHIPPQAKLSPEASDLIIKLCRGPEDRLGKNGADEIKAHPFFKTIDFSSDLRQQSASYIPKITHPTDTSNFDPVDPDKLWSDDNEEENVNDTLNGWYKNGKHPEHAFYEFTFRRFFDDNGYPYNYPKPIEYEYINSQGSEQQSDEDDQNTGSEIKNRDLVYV

CLK1 = biological target: T5, CLK1 (Homo sapiens, UniProt P49759); format: biochemical; conditions: 2 μM, 10 μM ATP
T5 construct: purchased Reaction Biology Corp

DYRK3 = biological target: T6, DYRK3 (Homo sapiens, UniProt O43781); format: biochemical
T6 construct: purchased Reaction Biology Corp
T6 sequence (O43781 1-588): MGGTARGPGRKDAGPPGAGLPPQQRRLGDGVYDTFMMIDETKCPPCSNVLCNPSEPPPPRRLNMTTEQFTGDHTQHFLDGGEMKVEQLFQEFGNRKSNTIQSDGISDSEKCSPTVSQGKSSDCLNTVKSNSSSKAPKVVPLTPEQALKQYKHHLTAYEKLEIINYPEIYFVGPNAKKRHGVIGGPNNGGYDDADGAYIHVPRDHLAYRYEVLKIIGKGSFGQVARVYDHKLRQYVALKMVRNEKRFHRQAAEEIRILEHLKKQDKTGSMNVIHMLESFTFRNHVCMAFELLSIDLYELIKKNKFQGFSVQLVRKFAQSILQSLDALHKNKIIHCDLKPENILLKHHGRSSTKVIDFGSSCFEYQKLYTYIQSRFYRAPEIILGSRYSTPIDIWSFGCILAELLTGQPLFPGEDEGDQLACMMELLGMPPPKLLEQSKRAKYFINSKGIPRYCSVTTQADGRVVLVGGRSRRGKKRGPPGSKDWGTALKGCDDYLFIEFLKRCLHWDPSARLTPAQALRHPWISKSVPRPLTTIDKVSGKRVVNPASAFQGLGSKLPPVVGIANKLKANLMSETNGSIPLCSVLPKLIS

MAP2K1 (MEK1) = MAP2K1 (MEK1) (Homo sapiens, UniProt Q02750)
Sequence of MAP2K1 (MEK1) (Q02750 whole entry): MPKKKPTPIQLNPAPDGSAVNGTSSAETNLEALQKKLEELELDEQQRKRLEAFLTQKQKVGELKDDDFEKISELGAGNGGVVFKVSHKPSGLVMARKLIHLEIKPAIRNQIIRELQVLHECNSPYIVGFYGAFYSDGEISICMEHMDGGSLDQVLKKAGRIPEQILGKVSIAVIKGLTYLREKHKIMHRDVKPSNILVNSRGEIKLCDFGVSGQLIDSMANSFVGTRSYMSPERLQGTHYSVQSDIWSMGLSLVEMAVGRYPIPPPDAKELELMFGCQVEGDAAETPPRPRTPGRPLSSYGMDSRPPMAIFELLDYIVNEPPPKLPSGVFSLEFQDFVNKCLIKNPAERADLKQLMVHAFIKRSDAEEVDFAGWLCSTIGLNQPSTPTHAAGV

ROCK1 = biological target: T7, ROCK1 (Homo sapiens, UniProt Q13464); format: biochemical; conditions: 10 μM ATP
T7 construct: purchased Reaction Biology Corp
T7 sequence (Q13464 whole entry): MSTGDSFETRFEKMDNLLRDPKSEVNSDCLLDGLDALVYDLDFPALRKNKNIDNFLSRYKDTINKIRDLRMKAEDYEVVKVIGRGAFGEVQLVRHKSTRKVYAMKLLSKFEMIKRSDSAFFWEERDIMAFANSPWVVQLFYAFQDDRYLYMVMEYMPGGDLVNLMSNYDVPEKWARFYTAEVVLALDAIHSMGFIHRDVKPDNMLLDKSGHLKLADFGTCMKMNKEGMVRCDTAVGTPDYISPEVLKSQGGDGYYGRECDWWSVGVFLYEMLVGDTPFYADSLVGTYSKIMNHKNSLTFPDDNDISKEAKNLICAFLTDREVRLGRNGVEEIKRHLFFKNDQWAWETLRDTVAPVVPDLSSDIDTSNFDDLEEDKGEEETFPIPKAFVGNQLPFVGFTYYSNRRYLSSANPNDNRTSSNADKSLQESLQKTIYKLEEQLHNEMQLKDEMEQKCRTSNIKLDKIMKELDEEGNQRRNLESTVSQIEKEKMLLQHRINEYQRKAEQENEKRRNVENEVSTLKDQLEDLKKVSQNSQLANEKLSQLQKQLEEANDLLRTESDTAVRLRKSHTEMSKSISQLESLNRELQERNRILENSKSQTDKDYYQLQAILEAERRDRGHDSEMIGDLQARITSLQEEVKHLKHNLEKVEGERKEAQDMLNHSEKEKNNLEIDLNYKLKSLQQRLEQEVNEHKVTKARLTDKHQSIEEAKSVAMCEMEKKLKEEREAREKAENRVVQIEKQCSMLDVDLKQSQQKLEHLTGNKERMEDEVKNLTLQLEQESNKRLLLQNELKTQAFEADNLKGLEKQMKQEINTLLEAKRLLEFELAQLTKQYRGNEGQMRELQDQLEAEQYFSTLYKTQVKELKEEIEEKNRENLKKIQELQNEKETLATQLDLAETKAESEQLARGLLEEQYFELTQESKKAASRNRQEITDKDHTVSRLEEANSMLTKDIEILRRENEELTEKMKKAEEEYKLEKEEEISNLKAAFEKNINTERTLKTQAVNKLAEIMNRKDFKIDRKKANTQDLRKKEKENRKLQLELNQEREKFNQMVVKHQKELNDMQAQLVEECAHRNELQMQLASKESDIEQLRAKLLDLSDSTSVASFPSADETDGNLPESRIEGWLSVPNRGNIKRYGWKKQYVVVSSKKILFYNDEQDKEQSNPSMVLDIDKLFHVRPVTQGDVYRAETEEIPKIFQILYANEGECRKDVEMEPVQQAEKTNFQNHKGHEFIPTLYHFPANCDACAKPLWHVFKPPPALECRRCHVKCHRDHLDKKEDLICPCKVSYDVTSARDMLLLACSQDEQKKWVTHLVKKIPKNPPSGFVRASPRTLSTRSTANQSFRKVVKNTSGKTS

LATS2 = biological target: T8, LATS2 (Homo sapiens, UniProt Q9NRM7); format: biochemical; conditions: 10 μM ATP
T8 construct: purchased Reaction Biology Corp
T8 sequence (Q9NRM7 whole entry): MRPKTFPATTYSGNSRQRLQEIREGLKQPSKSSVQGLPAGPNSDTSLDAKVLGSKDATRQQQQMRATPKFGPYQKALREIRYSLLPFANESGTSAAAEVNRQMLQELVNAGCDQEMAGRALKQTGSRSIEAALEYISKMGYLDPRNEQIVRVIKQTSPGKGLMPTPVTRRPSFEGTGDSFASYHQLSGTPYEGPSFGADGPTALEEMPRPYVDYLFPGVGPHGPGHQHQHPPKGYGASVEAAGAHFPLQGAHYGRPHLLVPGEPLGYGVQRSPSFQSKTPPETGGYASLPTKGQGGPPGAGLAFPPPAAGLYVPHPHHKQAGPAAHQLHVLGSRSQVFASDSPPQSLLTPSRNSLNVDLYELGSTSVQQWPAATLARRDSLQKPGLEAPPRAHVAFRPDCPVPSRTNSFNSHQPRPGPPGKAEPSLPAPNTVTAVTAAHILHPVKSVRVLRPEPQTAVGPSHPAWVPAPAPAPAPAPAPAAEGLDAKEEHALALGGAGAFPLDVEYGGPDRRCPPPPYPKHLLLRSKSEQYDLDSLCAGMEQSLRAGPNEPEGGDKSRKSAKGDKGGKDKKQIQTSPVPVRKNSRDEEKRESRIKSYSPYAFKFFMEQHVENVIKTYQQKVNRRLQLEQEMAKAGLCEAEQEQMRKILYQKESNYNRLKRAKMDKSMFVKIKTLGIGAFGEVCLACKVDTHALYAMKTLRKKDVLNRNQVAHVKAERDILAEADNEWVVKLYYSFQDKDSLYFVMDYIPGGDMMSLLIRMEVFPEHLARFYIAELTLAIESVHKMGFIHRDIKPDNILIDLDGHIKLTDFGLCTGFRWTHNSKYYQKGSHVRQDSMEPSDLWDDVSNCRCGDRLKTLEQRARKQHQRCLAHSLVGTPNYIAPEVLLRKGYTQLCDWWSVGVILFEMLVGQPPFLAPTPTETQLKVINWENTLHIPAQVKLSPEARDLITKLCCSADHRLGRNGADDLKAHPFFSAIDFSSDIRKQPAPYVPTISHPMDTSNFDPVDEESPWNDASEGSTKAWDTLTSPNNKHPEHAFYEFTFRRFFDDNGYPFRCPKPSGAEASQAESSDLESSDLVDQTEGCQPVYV

NLK = biological target: T9, NLK (Homo sapiens, UniProt Q9UBE8); format: biochemical; conditions: 10 μM ATP
T9 construct: purchased Reaction Biology Corp

PKCγ = biological target: T10, PKCγ (Homo sapiens, UniProt P05129); format: biochemical
T10 construct: purchased Reaction Biology Corp

SMILES: Cn1cncc1C1=CN(c2ncnc3nc[nH]c23)CCS1 [Compound 1, Aplithianine A]
- inhibition at 0.05 µM (DYRK1A; 50 nM, 10 μM ATP): 23.1%
- inhibition at 2 µM (DYRK1A; 2 μM, 10 μM ATP): 95.4%
- IC50 (DYRK1A; 10 μM ATP, read-out: DYRK1A IC50): 119 nM
- DYRK1A Differential (as compared to PKG1a) (DYRK1A; IC50 (kinase)/IC50 (PKG1a)): 10.01
- IC50 (DYRK1A; Table 4 dose-response, read-out: DYRK1A IC50 Values): 114 nM
- inhibition at 0.05 µM (RSK1; 50 nM): 13%
- inhibition at 2 µM (RSK1; 2 μM): 82%
- IC50 (CK1α1): 800 to 6600 nM
- IC50 (CK1α1; read-out: CK1α1 IC50, 10 μM ATP): 1830 nM
- inhibition at 0.05 µM (MST3; 50 nM): 13.2%
- inhibition at 2 µM (MST3; 2 μM): -15.6%
- inhibition at 0.05 µM (LATS1; 50 nM): 35%
- inhibition at 2 µM (LATS1; 2 μM): 96.1%
- inhibition at 2 µM (CLK1): 97.3%
- inhibition at 0.05 µM (DYRK3; 50 nM, 10 μM ATP): 15.9%
- inhibition at 2 µM (DYRK3; 2 μM, 10 μM ATP): 90.9%
- IC50 (DYRK3; 10 μM ATP, read-out: DYRK3 IC50): 202 nM
- DYRK3 Differential (as compared to PKG1a) (DYRK3; IC50 (kinase)/IC50 (PKG1a)): 19.13
- IC50 (DYRK3; Table 4 dose-response, read-out: DYRK3 IC50 Values): 218 nM
- IC50 (MAP2K1 (MEK1)): 18000 to 65000 nM
- IC50 (MAP2K1 (MEK1); read-out: MAP2K1 / MEK1 IC50, 10 μM ATP): 23600 nM
- inhibition at 0.05 µM (ROCK1; 50 nM): 27%
- inhibition at 2 µM (ROCK1; 2 μM): 88.6%
- inhibition at 0.05 µM (LATS2; 50 nM): 34.2%
- inhibition at 2 µM (LATS2; 2 μM): 92.9%
- inhibition at 0.05 µM (NLK; 50 nM): 19.6%
- inhibition at 2 µM (NLK; 2 μM): 43%
- inhibition at 0.05 µM (PKCγ; 50 nM, 10 μM ATP): 30.5%
- inhibition at 2 µM (PKCγ; 2 μM, 10 μM ATP): 92.8%
- IC50 (PKCγ; 10 μM ATP, read-out: PKCγ IC50): 234 nM
- PKCg Differential (as compared to PKG1a) (PKCγ; IC50 (kinase)/IC50 (PKG1a)): 13.99
- IC50 (PKCγ; Table 4 dose-response, read-out: PKCg IC50 Values): 159 nM
